Experimental data from patent US11168106B1, “Synthesis and stabilization of nicotinamide ribose and its derivatives” (priority 2017, dated 2021).

Key:
[1] = Decomposition of nicotinamide ribose in water with and without borate, HPTLC read at 254 nm; format: physicochemical; settings: for Area [%] of assigned substance, decomposition of nicotinamide ribose with borate: boric acid added in 1:1 molar ratio, in water; for Area [%] of assigned substance, decomposition of nicotinamide ribose with borate / Area [%] of assigned substance, decomposition of nicotinamide ribose without borate: water bath 65° C., 8 h, HPTLC at 254 nm; for Area [%] of assigned substance, decomposition of nicotinamide ribose without borate: 1 mg/mL in water
Experimental: Nicotinamide riboside (NR) as its chloride salt was used at 100 mM. Boric acid: was used at 300 mM. All samples were prepared in water. This, 1 mg/mL of nicotinamide riboside of capsule content was weighed in a 25 mL volumetric flask. Water was added to 25 mL total volume. For the reaction in the presence of boric acid, the same was done with boric acid added in a 1:1 molar ratio. In either case, 5 mL of each solution prepared was placed in the water bath at 65° C. A control was incubated at room temperature. After incubation for 8 h, 2 μL of each solution (heated and not heated) are placed on the HPTLC plate. The plate is eluted in the following mobile phase: ethanol, ammonium acetate 1 M (7:3). The plate is read at 254 nm to obtain the respective peaks.

NAD = settings: healthy middle-aged and older adults, cited from earlier work

Area [%] of assigned substance, decomposition of nicotinamide ribose with borate [1] [%] | Stabilization with respect to decomposition ([1]; boric acid vs no boric acid (FIG. 3 and FIG. 4)) | Area [%] of assigned substance, decomposition of nicotinamide ribose without borate [1] [%] | SMILES | Effect on NAD level (NAD; chronic supplementation) | Tolerability of chronic supplementation (NAD)
86.08 | stabilized by boric acid | 70.1878 | NC(=O)c1ccc[n+]([C@@H]2O[C@H](CO)[C@@H](O)[C@H]2O)c1 [Nicotinamide riboside] | elevates NAD | well-tolerated
13.92 |  | 29.8122 | NC(=O)c1cccnc1 [Nicotinamide] |  | 
